The term % Inhibition denotes the drop in the measured response relative to a control, in per cent. High values mean strong suppression, low ones little suppression.

Strand notation (5' to 3'): a small letter for the sugar, then the base; units joined by * are phosphorothioate-linked, units joined directly phosphodiester-linked; [ ] holds rarer units or linkages, { } end groups; capitals alone tell only the bases. e = 2'-O-(2-methoxyethyl) (MOE); [5mC] = 5-methylcytosine; d = 2'-deoxy (DNA)

The data set relates to human Factor 7 mRNA. Kind of data set: Antisense inhibition of human Factor 7 with short (14-mer) oligonucleotides in HepB3 cells, electroporation 1,000 nM. Format: cell-based. The following applies: electroporation, 1,000 nM antisense oligonucleotide, approximately 24 hours, Factor 7 mRNA relative to untreated control cells. An outline of the steps: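 14-mer 2-10-2 MOE gapmers (full phosphorothioate, 5-methyl-C) electroporated at 1,000 nM into HepB3 cells at 20,000 cells/well. After ~24 h, Factor 7 mRNA by real-time RT-PCR, normalized to RiboGreen total RNA. Reported as % inhibition relative to untreated cells.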
With “435791 (antisense eA*eT*dG*dA*dG*dA*dA*dA*dT*dG*d[5mC]*dT*eT*eT) [compound 435791]”, the “% Inhibition” value is listed as 0%.

Regarding “435792 (antisense eT*eG*d[5mC]*dT*dG*dA*dA*dG*dA*dA*dA*d[5mC]*eT*eG) [compound 435792]”, the “% Inhibition” value was 9%.

Consider “435793 (antisense eT*eG*d[5mC]*dA*dG*dT*dA*dG*d[5mC]*dA*dG*dA*eT*eG) [compound 435793]”, for which the “% Inhibition” value was 27%.

Consider “435794 (antisense eG*eA*dG*dG*dT*dA*d[5mC]*dA*d[5mC]*dA*dG*dG*e[5mC]*eT) [compound 435794]”, for which the “% Inhibition” value came out at 26%.

As for “435795 (antisense eA*e[5mC]*dA*d[5mC]*d[5mC]*d[5mC]*dG*dA*dG*dG*dT*dT*e[5mC]*eA) [compound 435795]”, the “% Inhibition” value turned out to be 66%.

As for “435796 (antisense eT*eG*dA*d[5mC]*d[5mC]*dA*d[5mC]*dA*d[5mC]*dA*dT*dT*eT*e[5mC]) [compound 435796]”, the “% Inhibition” value is 30%.

For “435797 (antisense eA*eA*dT*d[5mC]*dT*dT*dG*dG*d[5mC]*d[5mC]*d[5mC]*d[5mC]*eT*e[5mC]) [compound 435797]”, the “% Inhibition” value is listed as 16%.

As for “435798 (antisense eA*eG*d[5mC]*d[5mC]*dA*dG*dA*d[5mC]*dT*dT*dT*d[5mC]*e[5mC]*eT) [compound 435798]”, the “% Inhibition” value is on record as 54%.

As for “435799 (antisense e[5mC]*eT*dG*dG*dT*d[5mC]*d[5mC]*d[5mC]*d[5mC]*dA*dT*d[5mC]*eT*eG) [compound 435799]”, the “% Inhibition” value is given as 33%.

As for “435800 (antisense eG*eG*dA*d[5mC]*d[5mC]*d[5mC]*dA*dA*dA*dG*dT*dG*eG*eG) [compound 435800]”, the “% Inhibition” value was 0%.

Regarding “435801 (antisense e[5mC]*eG*dG*dT*dT*dG*dG*d[5mC]*d[5mC]*dA*dG*dG*e[5mC]*e[5mC]) [compound 435801]”, the “% Inhibition” value was 38%.

As for “435802 (antisense eG*eT*d[5mC]*dA*d[5mC]*d[5mC]*dT*dA*dG*dA*d[5mC]*d[5mC]*eA*eA) [compound 435802]”, the “% Inhibition” value is 61%.

Consider “435803 (antisense eG*eA*dG*dA*dA*dT*dT*dG*d[5mC]*d[5mC]*d[5mC]*dA*eG*eG) [compound 435803]”, for which the “% Inhibition” value is 0%.

As to “435804 (antisense e[5mC]*eA*dG*dG*dG*dA*d[5mC]*dT*d[5mC]*dT*d[5mC]*dA*eG*e[5mC]) [compound 435804]”, the “% Inhibition” value is reported as 26%.

Regarding “435805 (antisense eT*eG*dA*dA*dT*dT*dA*d[5mC]*dT*dG*dA*dA*e[5mC]*e[5mC]) [compound 435805]”, the “% Inhibition” value is 0%.

As for “435806 (antisense eT*eG*dA*d[5mC]*d[5mC]*d[5mC]*d[5mC]*dA*d[5mC]*dA*dG*dG*eG*eA) [compound 435806]”, the “% Inhibition” value is reported as 7%.

On to “435807 (antisense e[5mC]*eA*dG*dT*dA*d[5mC]*dT*dT*d[5mC]*d[5mC]*d[5mC]*dA*e[5mC]*eG) [compound 435807]”, for which the “% Inhibition” value is on record as 35%.

Take “435808 (antisense e[5mC]*eT*d[5mC]*dT*dG*dG*dA*d[5mC]*dA*d[5mC]*d[5mC]*dG*eG*eG) [compound 435808]”: the “% Inhibition” value was 66%.

With “435809 (antisense e[5mC]*eT*dG*dA*d[5mC]*dA*dA*dT*dG*dT*dG*dA*eT*eG) [compound 435809]”, the “% Inhibition” value came out at 5%.

As to “435810 (antisense e[5mC]*eT*dG*dA*dG*dG*dG*dA*dA*dT*dG*dT*eT*eG) [compound 435810]”, the “% Inhibition” value was determined as 1%.

On to “435811 (antisense eG*eT*dG*dG*dT*d[5mC]*dA*dA*dG*dG*dA*dT*eG*eA) [compound 435811]”, for which the “% Inhibition” value was determined as 27%.

For “435812 (antisense eG*e[5mC]*dT*dG*dA*dG*d[5mC]*dA*dG*dA*dG*dA*eT*e[5mC]) [compound 435812]”, the “% Inhibition” value is 35%.

With “435813 (antisense eG*eG*dA*dT*dG*d[5mC]*dA*d[5mC]*dA*d[5mC]*d[5mC]*dA*eG*eG) [compound 435813]”, the “% Inhibition” value is 55%.

As to “435814 (antisense eT*eG*dA*d[5mC]*dG*dA*dG*dA*dG*dG*dA*d[5mC]*e[5mC]*eA) [compound 435814]”, the “% Inhibition” value is on record as 31%.

For “435815 (antisense e[5mC]*eT*d[5mC]*dT*dT*d[5mC]*d[5mC]*dG*dA*dG*d[5mC]*dA*eG*e[5mC]) [compound 435815]”, the “% Inhibition” value is on record as 59%.

In the case of “435816 (antisense eT*e[5mC]*d[5mC]*dA*dA*dA*dG*dG*dA*d[5mC]*dA*dA*eG*eG) [compound 435816]”, the “% Inhibition” value is on record as 4%.

On to “435817 (antisense e[5mC]*eT*dG*dA*dG*d[5mC]*dT*dT*dG*dG*d[5mC]*dA*e[5mC]*e[5mC]) [compound 435817]”, for which the “% Inhibition” value is reported as 39%.

On to “435818 (antisense eG*eT*d[5mC]*dA*dT*d[5mC]*d[5mC]*dT*dT*dG*dT*d[5mC]*eT*eG) [compound 435818]”, for which the “% Inhibition” value is given as 43%.

In the case of “435819 (antisense eT*eT*dT*dG*dT*d[5mC]*d[5mC]*dA*dG*dT*dA*dA*eG*eA) [compound 435819]”, the “% Inhibition” value is listed as 1%.

With “435820 (antisense e[5mC]*eA*dT*d[5mC]*d[5mC]*dT*dA*dG*dT*d[5mC]*dA*d[5mC]*eT*eG) [compound 435820]”, the “% Inhibition” value worked out at 19%.

For the substance “435821 (antisense eA*eG*dT*d[5mC]*dA*dG*dT*dA*d[5mC]*dA*dG*dA*e[5mC]*eA) [compound 435821]”, the “% Inhibition” value amounted to 0%.

Regarding “435822 (antisense e[5mC]*e[5mC]*dA*dG*dG*dA*dG*d[5mC]*d[5mC]*dT*dT*dT*eA*e[5mC]) [compound 435822]”, the “% Inhibition” value stood at 37%.

“435823 (antisense eT*eG*dA*dG*dT*d[5mC]*d[5mC]*d[5mC]*dA*dG*dG*d[5mC]*eT*eG) [compound 435823]”: the “% Inhibition” value came to 41%.

For the substance “435824 (antisense e[5mC]*e[5mC]*dT*dA*dA*dA*dG*dA*dT*dG*dA*dA*eT*e[5mC]) [compound 435824]”, the “% Inhibition” value worked out at 21%.

Turning to “435825 (antisense e[5mC]*eT*dG*dG*dT*dT*dT*dT*dG*dG*dA*dG*eG*eA) [compound 435825]”, the “% Inhibition” value was 0%.

For “435826 (antisense eA*eA*dG*dT*dG*dG*d[5mC]*dT*dG*dG*d[5mC]*dT*eG*eA) [compound 435826]”, the “% Inhibition” value was 27%.

Take “435827 (antisense eT*e[5mC]*dA*dG*dA*dA*dA*dG*dA*dT*dG*d[5mC]*eA*eG) [compound 435827]”: the “% Inhibition” value is reported as 5%.

As for “435828 (antisense eG*eA*d[5mC]*d[5mC]*dT*dG*d[5mC]*d[5mC]*d[5mC]*dA*dT*dT*eT*eT) [compound 435828]”, the “% Inhibition” value is reported as 0%.

On to “435829 (antisense eG*eG*dG*dT*dA*dG*dA*d[5mC]*d[5mC]*d[5mC]*dT*d[5mC]*eA*eG) [compound 435829]”, for which the “% Inhibition” value is given as 18%.

Regarding “435830 (antisense eT*eG*dA*dT*dT*dT*dT*dG*d[5mC]*dA*dA*dA*eG*eA) [compound 435830]”, the “% Inhibition” value stood at 0%.

As to “435831 (antisense eG*eA*dT*d[5mC]*dT*dT*d[5mC]*dA*d[5mC]*dA*dT*dA*eG*e[5mC]) [compound 435831]”, the “% Inhibition” value is 51%.

With “435832 (antisense eT*eG*d[5mC]*dT*d[5mC]*dA*dG*dA*d[5mC]*d[5mC]*dT*dG*eG*e[5mC]) [compound 435832]”, the “% Inhibition” value was determined as 70%.

Consider “435833 (antisense eA*eG*dA*d[5mC]*dA*d[5mC]*dT*dT*dG*dA*dG*dA*eG*e[5mC]) [compound 435833]”, for which the “% Inhibition” value is reported as 24%.

For the substance “435834 (antisense eT*eG*dA*d[5mC]*dA*dG*d[5mC]*dA*d[5mC]*dG*dA*dA*eG*e[5mC]) [compound 435834]”, the “% Inhibition” value is reported as 20%.

For “435835 (antisense eT*eT*dA*dT*dT*dT*dG*dG*dG*d[5mC]*dA*dT*eG*eG) [compound 435835]”, the “% Inhibition” value was found to be 7%.

As for “435836 (antisense e[5mC]*eT*dA*dG*dG*dT*d[5mC]*dT*dG*d[5mC]*dA*dG*eG*eG) [compound 435836]”, the “% Inhibition” value is listed as 41%.

With “435837 (antisense e[5mC]*eT*d[5mC]*dG*d[5mC]*d[5mC]*dT*dG*dG*dA*dA*dG*eG*eA) [compound 435837]”, the “% Inhibition” value is reported as 37%.

With “435838 (antisense eT*e[5mC]*d[5mC]*dA*dT*dG*dG*dA*d[5mC]*dA*d[5mC]*dT*eA*eA) [compound 435838]”, the “% Inhibition” value is 29%.

In the case of “435839 (antisense eG*eG*dT*d[5mC]*dA*dG*d[5mC]*dT*dG*dG*dT*d[5mC]*eT*eG) [compound 435839]”, the “% Inhibition” value stood at 14%.

With “435840 (antisense eG*eG*dG*d[5mC]*d[5mC]*d[5mC]*dG*d[5mC]*d[5mC]*dA*d[5mC]*dT*eG*eG) [compound 435840]”, the “% Inhibition” value worked out at 0%.

“435841 (antisense e[5mC]*eT*d[5mC]*dG*dG*dA*d[5mC]*dA*dA*dA*dA*dG*eA*eG) [compound 435841]”: the “% Inhibition” value is on record as 1%.

As for “435842 (antisense eA*eT*dT*dT*d[5mC]*d[5mC]*d[5mC]*dA*dT*dT*dG*dG*e[5mC]*eA) [compound 435842]”, the “% Inhibition” value amounted to 0%.

For “435843 (antisense eG*e[5mC]*dT*dG*dG*dA*dG*d[5mC]*dT*dG*dA*dG*e[5mC]*e[5mC]) [compound 435843]”, the “% Inhibition” value was determined as 0%.

Turning to “435844 (antisense eT*eG*dG*d[5mC]*d[5mC]*dA*dG*dT*dG*dG*d[5mC]*d[5mC]*eT*e[5mC]) [compound 435844]”, the “% Inhibition” value amounted to 30%.

With “435845 (antisense eG*e[5mC]*dT*d[5mC]*dA*dT*dG*dG*d[5mC]*dA*dG*dA*e[5mC]*eA) [compound 435845]”, the “% Inhibition” value was 21%.

Values taken from patent publication US9029337B2, “Modulation of factor 7 expression” (Isis Pharmaceuticals, Inc., priority 2007, dated 2015).
